Here are results for 4 molecules from patent publication US20080227799A1, “CXCR4 Antagonists Including Heteroatoms for the Treatment of Medical Disorders” (priority 2006, published 2008).

Entries after “also recorded” stand apart in the source; their conditions may differ.

The target of data set [1] is T1, CXCR4 (Homo sapiens, UniProt P61073).
T1 construct: endogenous in cells; probably MDA-MB-231
In words: Competition assay using biotin-labeled TN14003 and streptavidin-conjugated rhodamine on tumor cells. In kind it is binding. The text has this: In a separate embodiment, a process for screening potential drug candidates is provided. The process includes providing a labeled peptide-based CXCR4 antagonist that has a detectable signal when bound to a CXCR4 receptor; contacting a CXCR4 receptor with at least one test molecule at a known concentration to form a test sample; contacting the test sample with the peptide-based antagonist; separately, contacting the peptide-based antagonist to a sample not including any test molecule to form a control sample; and comparing the signal from the test sample to the signal from the control sample. In a specific subembodiment, the peptide-based antagonist is derived from TN14003 (described in PCT Publication No. WO 04/087068 to Emory University). In a further subembodiment, the antagonist is labeled with a biotin molecule and the signal is elicited when the biotin-labeled antagonist is contacted with a streptavadin-conjugated signal molecule.
The peptide-based antagonist is typically a molecule with high affinity for the receptor. In one embodiment, the molecule is derived from the “T140” peptide antagonists. In a specific embodiment, the antagonist is TN14003 (described in PCT Publication No. WO 04/087068 to Emory University). The receptor is typically expressed in a cell line. The process can be performed as a dose-response curve. In this embodiment, the test compound is incubated with the receptor at varying concentrations and the signal elicited after binding of the labeled antagonist is measured and compared to control, as well as to each other.
Using biotin-labeled TN14003 along with streptavidin-conjugated rhodamine allowed a determination of the binding efficiency of these chemicals to the SDF-1 binding site of CXCR4 on tumor cells and compared it to AMD3100-SDF-1 interactions (FIG. 7). […] Cells were pre-incubated with different concentrations of AMD3100. […] Therefore, one of these compounds, WZZL811S, was selected to study its therapeutic potential based on potency and low toxicity to cells (FIG. 9).

The subject of data set [2] is CXCR4/SDF-1-mediated Akt activation. In words: SDF-1-stimulated Akt phosphorylation in MDA-MB-231 cells (western blot). It counts as cell-based. As to conditions: for concentration blocking Akt activation: 100 ng/ml SDF-1, 30 minutes, 0-1000 nM tested; for SDF-1-stimulated phosphorylation of Akt: MDA-MB-231 cells, 100 ng/ml SDF-1, 30 min, dose-dependent. The procedure:
(§1) CXCR4/SDF-1 interaction activates PI3K/Akt and Ras/Raf/MEK/Erk pathways in a Gαi protein (PTX-sensitive)-dependent manner. Experiments were conducted to determine the effect of blocking CXCR4/SDF-1 interaction by either TN14003 or AMD3100 at different concentrations (0, 0.01, 0.1, 1, 10, 100, 1000 nM) on phosphorylations of Akt and Erk1/2 signaling. Incubating cells with 100 ng/ml of SDF-1 for 30 minutes activated Akt. […] However, the increase in Erk1/2 phosphorylation by SDF-1 was not significant as the increase in Akt phosphorylation.

In data set [3] the test system is CXCR4/SDF-1-mediated Erk1/2 phosphorylation. Briefly: SDF-1-stimulated Erk1/2 phosphorylation. In kind it is cell-based. As to conditions: data not shown. As for the experimental part:
as §1

Data set [4] concerns CXCR4. In words: CXCR4 protein levels after treating cells. In kind it is cell-based. The following applies: treated cells.
The conditions of data set [5]: withdrawn from clinical trials; cited from earlier work.
The next data set deals with SHIV. Briefly: SHIV infection of model cells, p27 antigen capture. In kind it is cell-based. As to conditions: 0.1, 1, 10 or 100 nM drug prior to infection. As for the experimental part: The effect of the test compounds on HIV infection in model cells was analyzed by p27 antigen capture using SHIV infected cells. Cells were incubated with 0, 0.1, 1, 10 or 100 nM drug prior to infection with SHIV. Viral titer was measured after infection by analyzing levels of p27 antigen. […] The inhibition was measurable at 2 days, and continued to 5 day incubations.

The subject of data set [6] is MDA-MB-231 cells. In words: Matrigel invasion assay, CXCR4/SDF-1-mediated invasion. As to conditions: 2 nM. In kind it is cell-based. The procedure: Lowering CXCR4 mRNA levels by siRNAs inhibited CXCR4/SDF-1-mediated invasion as measured by a matrigel invasion assay. The CXCR4 ligand, SDF-1 (400 ng/ml) was added to the lower chamber to attract CXCR4-positive breast cancer cells to migrate through the matrigel. The invasion of MDA-MB-231 cells transfected with siRNA1 decreased to 39±4% of the control cells, 51±8% with siRNA2, and only 16±6% with both siRNA1+2 (FIG. 3A).
WZZL811S was tested in a matrigel invasion assay to determine whether it can inhibit CXCR4/SDF-1-mediated invasion.

The subject of data set [7] is MDA-MB-231 cells. In words: Cell viability of MDA-MB-231 cells. In kind it is cell-based. The following applies: 100 μM (the highest concentration tested).
For another data set, the system named is metastatic 686LN cells. Briefly: 686LN head & neck cancer metastasis model, tail vein injection, FDG-PET. It counts as in vivo. As to conditions: 20 mg/mouse/twice weekly; thirty days. The procedure: The metastatic 686LN cells were injected intravenously through the tail vein to generate experimental animal models for Head & Neck cancer metastasis, modulated via CXCR4. […] These 3-D projection images show lung metastases well (bone mets and liver mets were apparent in axial section images of mice in control groups, data not shown).

For data set [8], the system named is human umbilical vein endothelial cells (HUVECs). In words: Endothelial capillary tube formation assay. It counts as cell-based. As to conditions: 100 nM; SDF-1 100 ng/ml; 18 hours. As for the experimental part: The anti-angiogenic effect of test compounds was measured by analyzing endothelial cell growth and tube formation. The angiogenic effect of SDF-1 (100 ng/ml) on capillary formation by human umbilical vein endothelial cells (HUVECs) was examined in vitro using Matrigel-coated 24-well plates precoated with Matrigel and incubated for 18 hours. The angiogenic effect of SDF-1 was inhibited by either 100 nM TN14003 (peptide-based CXCR4 antagonist) or WZZL811S treatment (FIG. 14a, graph FIG. 14b).

Data set [9] has as its target T1, CXCR4. Briefly: Immunofluorescence of biotin-labeled TN14003 on MDA-MB-231 cells preincubated with SDF-1. In kind it is binding. The following applies: 400 ng/ml SDF-1, 10 min. The procedure: Initially, experiments were performed to verify that TN14003 binds to the predicted SDF-1 binding sites on the CXCR4 receptor. In these studies, MDA-MB-231 cells were incubated in the absence (FIG. 1A, B) or presence (FIG. 1A, C) of 400 ng/ml of SDF-1α for 10 min, and then fixed in ice-cold acetone. Immunofluorescence of the biotin-labeled TN14003 was negative in both membrane and cytosol in the cells pretreated with SDF-1α for 10 min (FIG. 1A, C).

For the next data set, the system named is HIV. The following applies: MT-4 cells; read-out: concentration required for 50% protection of HIV-induced cytopathogenicity; cited from earlier work.
Another data set concerns MT-4 cells. The following applies: cited from earlier work.

T1 sequence (P61073 whole entry): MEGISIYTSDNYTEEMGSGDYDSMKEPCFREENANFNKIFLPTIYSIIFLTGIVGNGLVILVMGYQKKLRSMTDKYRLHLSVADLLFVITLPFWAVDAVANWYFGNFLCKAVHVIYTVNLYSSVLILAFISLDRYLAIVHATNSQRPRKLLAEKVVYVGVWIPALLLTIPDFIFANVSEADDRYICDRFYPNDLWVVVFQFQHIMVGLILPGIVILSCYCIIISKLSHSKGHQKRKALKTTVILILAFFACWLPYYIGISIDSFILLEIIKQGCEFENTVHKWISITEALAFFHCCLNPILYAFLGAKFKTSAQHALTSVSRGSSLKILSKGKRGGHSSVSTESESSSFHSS

Take `C1=CC(CN2CCCNCCNCCCNCC2)CC=C1CN1CCCNCCNCCCNCC1` (stereo not shown) [AMD3100]: the “concentration needed to compete against biotin-labeled TN14003” value at CXCR4 [1] (cells pre-incubated with different concentrations) turned out to be 10 µM. Further, in data set [2], the “concentration blocking Akt activation” value is listed as “a few nano molar” and the “SDF-1-stimulated phosphorylation of Akt” value is recorded as “blocked”. Further, the “concentration attenuating Erk1/2 phosphorylation” value in data set [3] is 100 nM. Further, the “effect on CXCR4 protein levels” value in the data set with CXCR4 [4] is “did not affect”. In [5], the “side effect in clinical study” value is listed as “cardiac-related side effect”.
As to `c1cnc(NCc2ccc(CNc3ncccn3)cc2)nc1` [WZ40], the “SHIV infection (p27 antigen levels)” value with SHIV is “inhibited SHIV infection at all concentrations tested”.
For `c1ccc(NCc2ccc(CNc3ccccn3)cc2)nc1` [WZZL811S], the IC50 on CXCR4 [1] (cells pre-incubated with various concentrations, read-out: IC50, detection of CXCR4 by biotin-labeled TN14003 on pre-incubated cells) is under 1 nM. The “binding affinity to the ligand-binding site of CXCR4 on tumor cells” value at CXCR4 [1] (competition with biotin-labeled TN14003) is reported as “nano-molar concentration”. In addition, in data set [2], the “SDF-1-stimulated phosphorylation of Akt” value was “blocked”. The “CXCR4/SDF-1 mediated invasion of MDA-MB-231” value in the data set with MDA-MB-231 cells [6] is given as “as potent as TN14003; also recorded: blocked”. For the same molecule, the “cell viability of MDA-MB-231 cells” value with MDA-MB-231 cells [7] was “did not decrease cell viability”. Moreover, in the data set on metastatic 686LN cells, the “efficacy relative to TN14003” value is 80%. Also, the “angiogenic effect of SDF-1 on capillary tube formation” value in data set [8] is reported as “inhibited”. Besides, the “SHIV infection (p27 antigen levels)” value in the data set on SHIV was “inhibited SHIV infection at all concentrations tested”.
For the molecule TN14003, in data set [2], the “concentration blocking Akt activation” value is “sub-nano molar concentration” and the “SDF-1-stimulated phosphorylation of Akt” value is recorded as “blocked”. Further, the “concentration attenuating Erk1/2 phosphorylation (in words)” value in [3] was “sub-nano molar concentration”. Also, the “CXCR4/SDF-1 mediated invasion of MDA-MB-231” value in the data set with MDA-MB-231 cells [6] is recorded as “blocked”. Besides, in the data set on metastatic 686LN cells, the “metastasis of 686LN cells to organs (FDG-PET)” value is “failed to metastasize to any organs”. Further, in data set [8], the “angiogenic effect of SDF-1 on capillary tube formation” value is on record as “inhibited”. Further, the “effect on CXCR4 protein levels” value in the data set on CXCR4 [4] is reported as “did not affect”. In addition, at CXCR4 [9], the “binding of biotin-labeled TN14003 to CXCR4 after SDF-1 preincubation” value was “negative; also recorded: blocked”. Further, the EC50 with HIV is 0.6 nM. Also, in the data set with MT-4 cells, the “concentration leading to 50% toxicity” value is 410 µM.
